Data from ChEMBL document CHEMBL2203077, “Discovery of a novel series of 4-quinolone JNK inhibitors” (Bioorg Med Chem Lett, 2012).
In brackets after ≈: the same amount, converted by molar mass. Values belong to the compound of their own block, whether it stands above or below them.

How the values were obtained:
[1] = Oral bioavailability in rat at 3 mg/kg administered using hydroxypropyl methylcellulose as vehicle; type: ADME, organism-based; conditions: in vivo
[2] = Clearance in dog at 3 mg/kg, iv; type: ADME, organism-based, Canis lupus familiaris; parameters: dose 3 mg/kg, route intravenous; conditions: in vivo
[3] = […] bioavailability in ip dosed rat; type: ADME, organism-based; conditions: in vivo, intraperitoneal
[4] = biological target: Serine/threonine-protein kinase DCLK3 (Homo sapiens, UniProt Q9C098); assay: Binding affinity to T7-phage-tagged DCAMKL3 by PCR analysis
[5] = biological target: Cyclin-dependent kinase 7 (Homo sapiens, UniProt P50613); assay: Binding affinity to T7-phage-tagged CDK7 by PCR analysis
[6] = biological target: Death-associated protein kinase 3 (Homo sapiens, UniProt O43293); assay: Binding affinity to T7-phage-tagged DAPK3 by PCR analysis
Death-associated protein kinase 3, sequence (O43293 whole entry): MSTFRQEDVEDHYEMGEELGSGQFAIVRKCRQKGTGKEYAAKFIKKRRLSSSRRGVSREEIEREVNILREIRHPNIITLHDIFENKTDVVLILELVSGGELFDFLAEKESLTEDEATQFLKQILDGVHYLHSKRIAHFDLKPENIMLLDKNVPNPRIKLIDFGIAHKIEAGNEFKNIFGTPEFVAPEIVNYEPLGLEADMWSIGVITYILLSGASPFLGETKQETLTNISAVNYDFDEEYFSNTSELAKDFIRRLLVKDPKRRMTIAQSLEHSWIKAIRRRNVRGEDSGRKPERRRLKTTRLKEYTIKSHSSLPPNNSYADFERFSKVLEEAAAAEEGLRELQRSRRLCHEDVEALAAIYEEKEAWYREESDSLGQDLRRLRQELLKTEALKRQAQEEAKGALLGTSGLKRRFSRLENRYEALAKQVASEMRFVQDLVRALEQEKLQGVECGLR

[7] = biological target: T1, Mitogen-activated protein kinase 9 (Homo sapiens, UniProt P45984); assay: Inhibition of human JNK2 alpha2 using GST-tagged ATF2 as substrate and [gamma33P]ATP incubated for 10 mins prior to substrate addition measured after 30 mins by scintillation counting
T1 sequence (P45984 whole entry): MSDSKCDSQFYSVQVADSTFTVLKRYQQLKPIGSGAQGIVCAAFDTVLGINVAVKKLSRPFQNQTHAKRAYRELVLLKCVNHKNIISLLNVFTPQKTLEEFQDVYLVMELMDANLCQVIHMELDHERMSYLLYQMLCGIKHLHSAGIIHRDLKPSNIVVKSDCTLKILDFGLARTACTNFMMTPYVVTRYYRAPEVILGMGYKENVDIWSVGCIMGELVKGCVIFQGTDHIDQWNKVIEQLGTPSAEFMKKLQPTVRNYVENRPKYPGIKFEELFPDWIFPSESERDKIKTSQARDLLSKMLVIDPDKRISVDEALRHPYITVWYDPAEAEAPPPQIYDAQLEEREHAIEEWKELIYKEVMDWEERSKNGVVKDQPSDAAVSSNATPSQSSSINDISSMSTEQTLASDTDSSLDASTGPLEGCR

Caco-2 = assay: Efflux ratio of permeability from apical to basal to basal to apical side of human Caco2 cells; type: ADME, cell-based
Rattus norvegicus [8] = assay: Antiasthatic activity in ovalbumin-sensitized Brown Norway rat assessed as inhibition of ovalbumin-induced total white blood cells infiltration into BAL at 10 mg/kg, sc administered 24 hrs prior to ovalbumin-challenge measured after 4 hrs relative to vehicle-treated control; type: functional; conditions: route subcutaneous
[9] = Clearance in rat at 3 mg/kg, iv; type: ADME, organism-based; parameters: dose 3 mg/kg, route intravenous; conditions: in vivo
[10] = biological target: T2, Mitogen-activated protein kinase 8 (Homo sapiens, UniProt P45983); assay: Binding affinity to T7-phage-tagged JNK1 by PCR analysis
T2 sequence (P45983 whole entry): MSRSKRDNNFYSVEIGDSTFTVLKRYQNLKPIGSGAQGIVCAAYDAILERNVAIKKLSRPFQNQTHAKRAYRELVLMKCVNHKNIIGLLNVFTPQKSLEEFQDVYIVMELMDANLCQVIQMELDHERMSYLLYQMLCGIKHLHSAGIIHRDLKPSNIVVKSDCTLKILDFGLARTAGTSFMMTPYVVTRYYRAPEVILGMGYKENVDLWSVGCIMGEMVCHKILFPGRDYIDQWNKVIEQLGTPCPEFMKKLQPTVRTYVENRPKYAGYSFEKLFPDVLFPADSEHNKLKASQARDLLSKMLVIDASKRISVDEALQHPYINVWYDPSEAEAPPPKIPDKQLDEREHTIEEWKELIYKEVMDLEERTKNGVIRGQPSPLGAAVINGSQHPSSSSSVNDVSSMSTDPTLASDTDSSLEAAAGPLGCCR

[11] = biological target: Interleukin-1 receptor-associated kinase 1 (Homo sapiens, UniProt P51617); assay: Binding affinity to T7-phage-tagged IRAK1 by PCR analysis
Interleukin-1 receptor-associated kinase 1, sequence (P51617 whole entry): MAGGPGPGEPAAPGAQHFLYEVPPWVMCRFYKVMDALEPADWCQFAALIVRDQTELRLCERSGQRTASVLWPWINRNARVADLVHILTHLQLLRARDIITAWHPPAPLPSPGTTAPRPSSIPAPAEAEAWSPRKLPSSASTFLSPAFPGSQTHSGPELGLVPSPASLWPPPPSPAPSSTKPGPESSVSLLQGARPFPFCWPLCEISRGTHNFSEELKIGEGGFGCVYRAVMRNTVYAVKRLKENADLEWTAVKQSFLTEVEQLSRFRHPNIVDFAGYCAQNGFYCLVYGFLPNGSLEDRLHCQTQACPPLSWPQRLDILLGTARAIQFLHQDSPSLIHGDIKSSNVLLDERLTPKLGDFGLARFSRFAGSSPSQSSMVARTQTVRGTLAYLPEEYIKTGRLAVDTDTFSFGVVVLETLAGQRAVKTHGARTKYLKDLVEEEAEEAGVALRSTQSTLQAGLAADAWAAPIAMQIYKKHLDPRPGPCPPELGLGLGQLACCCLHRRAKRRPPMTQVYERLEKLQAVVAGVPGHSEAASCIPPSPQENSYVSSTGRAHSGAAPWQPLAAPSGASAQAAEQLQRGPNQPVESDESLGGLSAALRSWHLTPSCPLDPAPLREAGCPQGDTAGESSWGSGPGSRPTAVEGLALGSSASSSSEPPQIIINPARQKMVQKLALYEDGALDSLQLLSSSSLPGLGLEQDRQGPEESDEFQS

[12] = biological target: Serine/threonine-protein kinase 17A (Homo sapiens, UniProt Q9UEE5); assay: Binding affinity to T7-phage-tagged STK17A by PCR analysis
[13] = biological target: T2, Mitogen-activated protein kinase 8; assay: Inhibition of human JNK1 alpha1 using GST-tagged ATF2 as substrate and [gamma33P]ATP incubated for 10 mins prior to substrate addition measured after 30 mins by scintillation counting
[14] = biological target: Dual specificity mitogen-activated protein kinase kinase 4 (Homo sapiens, UniProt P45985); assay: Binding affinity to T7-phage-tagged MAP2K4 by PCR analysis
[15] = biological target: Ribosomal protein S6 kinase alpha-1 (Homo sapiens, UniProt Q15418); assay: Binding affinity to T7-phage-tagged RPS6KA1 by PCR analysis
[16] = biological target: Mitogen-activated protein kinase 12 (Homo sapiens, UniProt P53778); assay: Binding affinity to T7-phage-tagged P38gamma by PCR analysis
[17] = biological target: Myosin light chain kinase family member 4 (Homo sapiens, UniProt Q86YV6); assay: Binding affinity to T7-phage-tagged SgK085 by PCR analysis
Myosin light chain kinase family member 4, sequence (Q86YV6 whole entry): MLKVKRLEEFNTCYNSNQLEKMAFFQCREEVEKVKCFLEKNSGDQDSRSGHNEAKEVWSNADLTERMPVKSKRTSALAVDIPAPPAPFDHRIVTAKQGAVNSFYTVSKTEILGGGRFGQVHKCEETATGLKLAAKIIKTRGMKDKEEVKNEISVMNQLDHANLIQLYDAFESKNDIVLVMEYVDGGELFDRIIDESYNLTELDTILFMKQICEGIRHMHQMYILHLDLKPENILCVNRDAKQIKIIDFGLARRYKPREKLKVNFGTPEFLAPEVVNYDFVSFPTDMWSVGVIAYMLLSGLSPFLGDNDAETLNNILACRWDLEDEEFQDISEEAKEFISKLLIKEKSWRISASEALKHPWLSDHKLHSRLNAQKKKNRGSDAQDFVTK

[18] = biological target: Serine/threonine-protein kinase RIO2 (Homo sapiens, UniProt Q9BVS4); assay: Binding affinity to T7-phage-tagged RIOK2 by PCR analysis
[19] = biological target: T1, Mitogen-activated protein kinase 9; assay: Binding affinity to T7-phage-tagged JNK2 by PCR analysis
[20] = Half life in rat at 3 mg/kg, iv; type: ADME, organism-based; parameters: dose 3 mg/kg, route intravenous; conditions: in vivo
[21] = biological target: Mitogen-activated protein kinase 7 (Homo sapiens, UniProt Q13164); assay: Binding affinity to T7-phage-tagged MAPK7 by PCR analysis
[22] = biological target: Mitogen-activated protein kinase 15 (Homo sapiens, UniProt Q8TD08); assay: Binding affinity to T7-phage-tagged MAPK15 by PCR analysis
[23] = biological target: c-Jun N-terminal kinase, JNK (Homo sapiens, UniProt P45983+P53779+P45984); assay: Inhibition of JNK in human SW1353 assessed as inhibition of TNFalpha-inuced c-Jun phosphorylation incubated for 30 mins prior to TNFalpha-induction measured after 20 mins by immunostaining method
[24] = biological target: Mitogen-activated protein kinase 13 (Homo sapiens, UniProt O15264); assay: Binding affinity to T7-phage-tagged P38delta by PCR analysis
Rattus norvegicus [25] = assay: Antiasthatic activity in ovalbumin-sensitized Brown Norway rat assessed as inhibition of ovalbumin-induced neutrophil infiltration into BAL at 10 mg/kg, sc administered 24 hrs prior to ovalbumin-challenge measured after 4 hrs relative to vehicle-treated control; type: functional; conditions: route subcutaneous
[26] = Oral bioavailability in dog at 3 mg/kg administered using hydroxypropyl methylcellulose as vehicle; type: ADME, organism-based, Canis lupus familiaris; conditions: in vivo
[27] = biological target: Inhibitor of nuclear factor kappa-B kinase subunit beta (Homo sapiens, UniProt O14920); assay: Binding affinity to T7-phage-tagged IKKbeta by PCR analysis
Inhibitor of nuclear factor kappa-B kinase subunit beta, sequence (O14920 whole entry): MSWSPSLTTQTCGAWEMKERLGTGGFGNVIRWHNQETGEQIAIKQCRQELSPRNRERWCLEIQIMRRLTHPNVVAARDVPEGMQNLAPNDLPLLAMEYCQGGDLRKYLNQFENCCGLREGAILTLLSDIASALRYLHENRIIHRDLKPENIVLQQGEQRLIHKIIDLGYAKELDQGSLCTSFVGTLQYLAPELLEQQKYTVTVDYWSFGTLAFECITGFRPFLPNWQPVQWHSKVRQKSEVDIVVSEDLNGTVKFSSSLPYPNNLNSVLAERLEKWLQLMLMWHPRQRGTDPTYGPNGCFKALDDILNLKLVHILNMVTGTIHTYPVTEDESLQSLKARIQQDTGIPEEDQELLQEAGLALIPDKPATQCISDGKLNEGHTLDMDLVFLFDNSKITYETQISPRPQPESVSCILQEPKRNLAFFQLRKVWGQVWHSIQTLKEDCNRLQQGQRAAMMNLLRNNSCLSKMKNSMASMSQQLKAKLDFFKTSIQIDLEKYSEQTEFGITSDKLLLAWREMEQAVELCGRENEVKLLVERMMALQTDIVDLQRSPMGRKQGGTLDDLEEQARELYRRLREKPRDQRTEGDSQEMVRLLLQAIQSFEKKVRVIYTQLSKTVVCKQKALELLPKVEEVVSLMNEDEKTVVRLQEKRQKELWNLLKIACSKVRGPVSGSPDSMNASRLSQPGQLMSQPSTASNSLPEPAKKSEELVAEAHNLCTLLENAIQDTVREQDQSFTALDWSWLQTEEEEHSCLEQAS

[28] = Half life in dog at 3 mg/kg, iv; type: ADME, organism-based, Canis lupus familiaris; parameters: dose 3 mg/kg, route intravenous; conditions: in vivo
[29] = biological target: Death-associated protein kinase 1 (Homo sapiens, UniProt P53355); assay: Binding affinity to T7-phage-tagged DAPK1 by PCR analysis
Death-associated protein kinase 1, sequence (P53355 whole entry): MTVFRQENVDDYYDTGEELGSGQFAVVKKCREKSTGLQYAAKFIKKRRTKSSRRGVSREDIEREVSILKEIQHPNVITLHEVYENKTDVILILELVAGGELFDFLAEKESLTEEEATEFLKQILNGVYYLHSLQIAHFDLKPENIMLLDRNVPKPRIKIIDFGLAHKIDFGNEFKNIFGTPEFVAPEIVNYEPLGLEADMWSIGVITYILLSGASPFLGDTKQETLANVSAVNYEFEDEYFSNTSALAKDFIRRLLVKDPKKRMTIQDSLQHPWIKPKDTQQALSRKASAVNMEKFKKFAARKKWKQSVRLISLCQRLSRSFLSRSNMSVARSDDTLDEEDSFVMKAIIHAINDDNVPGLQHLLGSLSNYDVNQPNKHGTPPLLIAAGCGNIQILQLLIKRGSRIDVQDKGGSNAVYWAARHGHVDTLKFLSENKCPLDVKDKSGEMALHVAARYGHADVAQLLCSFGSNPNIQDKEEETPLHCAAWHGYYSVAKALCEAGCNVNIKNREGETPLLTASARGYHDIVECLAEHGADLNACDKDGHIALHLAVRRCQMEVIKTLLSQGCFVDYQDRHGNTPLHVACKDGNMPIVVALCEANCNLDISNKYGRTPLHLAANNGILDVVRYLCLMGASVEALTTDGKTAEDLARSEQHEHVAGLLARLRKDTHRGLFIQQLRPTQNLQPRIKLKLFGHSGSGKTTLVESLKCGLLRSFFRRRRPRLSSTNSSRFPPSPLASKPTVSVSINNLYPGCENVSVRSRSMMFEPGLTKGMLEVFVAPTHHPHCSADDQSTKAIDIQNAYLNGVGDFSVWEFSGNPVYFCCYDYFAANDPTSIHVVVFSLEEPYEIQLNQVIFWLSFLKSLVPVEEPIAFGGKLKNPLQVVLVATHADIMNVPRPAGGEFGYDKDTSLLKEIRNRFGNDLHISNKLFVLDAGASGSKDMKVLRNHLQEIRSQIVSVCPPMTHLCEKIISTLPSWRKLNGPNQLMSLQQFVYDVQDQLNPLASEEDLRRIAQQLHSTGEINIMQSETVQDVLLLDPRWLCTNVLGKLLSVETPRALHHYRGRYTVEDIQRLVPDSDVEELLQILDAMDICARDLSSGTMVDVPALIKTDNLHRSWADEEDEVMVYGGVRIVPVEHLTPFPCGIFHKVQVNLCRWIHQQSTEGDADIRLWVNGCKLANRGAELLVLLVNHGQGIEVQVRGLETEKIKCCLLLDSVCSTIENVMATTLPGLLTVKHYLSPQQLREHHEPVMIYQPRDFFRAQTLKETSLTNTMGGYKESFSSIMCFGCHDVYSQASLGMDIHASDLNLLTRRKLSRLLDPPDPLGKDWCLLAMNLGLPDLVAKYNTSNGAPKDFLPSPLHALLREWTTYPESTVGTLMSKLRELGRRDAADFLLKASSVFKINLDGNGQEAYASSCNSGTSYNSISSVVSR

[30] = biological target: Death-associated protein kinase 2 (Homo sapiens, UniProt Q9UIK4); assay: Binding affinity to T7-phage-tagged DAPK2 by PCR analysis
Death-associated protein kinase 2, sequence (Q9UIK4 whole entry): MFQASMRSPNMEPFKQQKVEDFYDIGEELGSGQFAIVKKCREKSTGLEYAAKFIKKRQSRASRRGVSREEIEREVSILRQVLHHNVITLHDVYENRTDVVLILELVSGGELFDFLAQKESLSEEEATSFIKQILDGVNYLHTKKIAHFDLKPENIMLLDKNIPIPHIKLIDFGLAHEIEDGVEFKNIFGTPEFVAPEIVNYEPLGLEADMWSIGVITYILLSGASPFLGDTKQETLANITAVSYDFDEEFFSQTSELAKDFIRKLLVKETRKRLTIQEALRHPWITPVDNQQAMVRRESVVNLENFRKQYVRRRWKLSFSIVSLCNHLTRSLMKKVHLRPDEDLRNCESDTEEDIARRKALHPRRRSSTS

[31] = Solubility of the compound in phosphate buffer at pH 6.4; type: physicochemical
[32] = Oral bioavailability in rat at 3 mg/kg administered using labrasol as vehicle; type: ADME, organism-based; conditions: in vivo

bioavailability [1]: 6%
clearance [2]: 3.4 mL/min/kg
bioavailability [3]: 100%
Kd [4]: > 10000 nM
Kd [5]: > 10000 nM
IC50 [7]: 170 nM
Ratio (Caco-2): 7
clearance [9]: 25 mL/min/kg
Kd [10]: 62 nM
Kd [11]: > 10000 nM
Kd [12]: > 10000 nM
IC50 [13]: 62 nM
Kd [14]: > 10000 nM
Kd [15]: > 10000 nM
Kd [16]: > 10000 nM
Kd [17]: > 10000 nM
Kd [18]: > 10000 nM
Kd [19]: 170 nM
half-life [20]: 1 h
Kd [21]: > 10000 nM
IC50 [23]: 3000 nM
Kd [24]: > 10000 nM
bioavailability [26]: 40%
Kd [27]: > 10000 nM
half-life [28]: 2.5 h
solubility [31]: 8.5 µg/mL (≈ 17.3 µM)
bioavailability [32]: 43%
SMILES: COC(=O)c1c(Cc2ccc(C(=O)NCCO)cc2)c(=O)c2ccc(Cl)cc2n1-c1ccccc1
Kd [6]: > 10000 nM
inhibition in vivo at 10 mg/kg (Rattus norvegicus [8]): 40%
Kd [22]: > 10000 nM
inhibition in vivo at 10 mg/kg (Rattus norvegicus [25]): 55%
Kd [29]: > 10000 nM
Kd [30]: > 10000 nM

IC50 [7]: 220 nM
IC50 [13]: 82 nM
IC50 [23]: 2700 nM
SMILES: COC(=O)c1c(Cc2ccc(S(C)(=O)=O)cc2)c(=O)c2ccc(C(F)(F)F)nc2n1-c1ccccc1

IC50 [7]: 176 nM
IC50 [13]: 80 nM
IC50 [23]: 4300 nM
SMILES: COC(=O)c1c(Cc2ccc(C(=O)NCCO)cc2)c(=O)c2ccc(C(F)(F)F)nc2n1-c1ccccc1

IC50 [7]: 507 nM
IC50 [13]: 65 nM
SMILES: COC(=O)c1c(CN2CCN(S(C)(=O)=O)CC2)c(=O)c2ccc(F)cc2n1-c1ccccc1

IC50 [7]: 140 nM
Ratio (Caco-2): 2
IC50 [13]: 23 nM
IC50 [23]: 830 nM
solubility [31]: 34 µg/mL (≈ 72 µM)
SMILES: COC(=O)c1c(CN2CCC(S(C)(=O)=O)CC2)c(=O)c2ccc(F)cc2n1-c1ccccc1

IC50 [7]: 900 nM
IC50 [13]: 114 nM
SMILES: COC(=O)c1c(CN2CCOCC2)c(=O)c2ccc(F)cc2n1-c1ccccc1

IC50 [7]: 1310 nM
IC50 [13]: 130 nM
SMILES: COC(=O)c1c(CN2CC[C@@H](S(C)(=O)=O)C2)c(=O)c2ccc(F)cc2n1-c1ccccc1

IC50 [7]: 535 nM
IC50 [13]: 53 nM
SMILES: COC(=O)c1c(CN2CC[C@H](S(C)(=O)=O)C2)c(=O)c2ccc(F)cc2n1-c1ccccc1

IC50 [7]: 190 nM
IC50 [23]: 430 nM
SMILES: COC(=O)c1c(CN2CCC(S(C)(=O)=O)CC2)c(=O)c2ccc(C)nc2n1-c1ccccc1

IC50 [7]: 290 nM
IC50 [23]: 4300 nM
SMILES: COC(=O)c1c(CN2CCC(S(C)(=O)=O)CC2)c(=O)c2ccc(C(F)(F)F)nc2n1-c1ccccc1

IC50 [7]: > 20000 nM
IC50 [13]: 11000 nM
SMILES: CCn1c(=O)c2ccccc2n(-c2ccccc2)c1=O

IC50 [7]: 9300 nM
IC50 [13]: 2800 nM
SMILES: O=c1c2ccccc2n(-c2ccccc2)c(=O)n1Cc1ccccc1

IC50 [7]: 3800 nM
IC50 [13]: 2300 nM
SMILES: O=c1c2ccc(Cl)cc2n(-c2ccccc2)c(=O)n1Cc1ccccc1

IC50 [7]: 960 nM
IC50 [13]: 370 nM
SMILES: COC(=O)c1c(Cc2ccccc2)c(=O)c2ccc(Cl)cc2n1-c1ccccc1

IC50 [13]: 47 nM
SMILES: CNS(=O)(=O)c1ccc(Cc2c(C(=O)OC)n(-c3ccccc3)c3cc(Cl)ccc3c2=O)cc1

IC50 [7]: 94 nM
IC50 [13]: 38 nM
SMILES: CCNC(=O)c1ccc(Cc2c(C(=O)OC)n(-c3ccccc3)c3cc(Cl)ccc3c2=O)cc1

IC50 [7]: 50 nM
Ratio (Caco-2): 2
IC50 [13]: 30 nM
IC50 [23]: 1000 nM
solubility [31]: 23 µg/mL (≈ 41.7 µM)
SMILES: COC(=O)c1c(Cc2ccc(S(=O)(=O)N3CCNCC3)cc2)c(=O)c2ccc(Cl)cc2n1-c1ccccc1

IC50 [7]: 70 nM
IC50 [13]: 30 nM
IC50 [23]: 1700 nM
solubility [31]: 37 µg/mL (≈ 69.1 µM)
SMILES: COC(=O)c1c(Cc2ccc(S(=O)(=O)N3CCNCC3)cc2)c(=O)c2ccc(F)cc2n1-c1ccccc1

IC50 [7]: 219 nM
IC50 [13]: 58 nM
IC50 [23]: 2500 nM
SMILES: COC(=O)c1c(Cc2ccc(S(=O)(=O)CCO)cc2)c(=O)c2ccc(F)cc2n1-c1ccccc1

IC50 [7]: 64 nM
Ratio (Caco-2): 15
IC50 [13]: 30 nM
IC50 [23]: 4200 nM
solubility [31]: 78 µg/mL (≈ 165 µM)
SMILES: COC(=O)c1c(Cc2ccc(C(=O)NCCO)cc2)c(=O)c2ccc(C)nc2n1-c1ccccc1

IC50 [7]: 28 nM
IC50 [13]: 18 nM
IC50 [23]: 560 nM
SMILES: COC(=O)c1c(Cc2ccc(S(=O)(=O)N3CCNCC3)cc2)c(=O)c2ccc(C)nc2n1-c1ccccc1

IC50 [7]: 87 nM
IC50 [13]: 45 nM
IC50 [23]: 4700 nM
SMILES: CCNC(=O)c1ccc(Cc2c(C(=O)OC)n(-c3ccccc3)c3nc(C)ccc3c2=O)cc1

IC50 [7]: 32 nM
IC50 [13]: 14 nM
IC50 [23]: 860 nM
SMILES: COC(=O)c1c(Cc2ccc(S(C)(=O)=O)cc2)c(=O)c2ccc(C)nc2n1-c1cccc(N)c1
